One experiment has as its system MCF7. In words: Antiproliferative activity against human MCF7 cells after 48 hrs by MTT assay. The class given is functional, cell-based. As to conditions: MCF7, 48 h.
The target in experiment [1] is Vascular endothelial growth factor receptor 2 (Homo sapiens, UniProt P35968). Briefly: Inhibition VEGFR2 (unknown origin) for 30 mins by ELISA.
The target of the next experiment is Histone deacetylase. In words: Inhibition of human HDAC in HeLa cell nuclear extract by fluorometric assay using Fluor de Lys substrate. The format is protein assay.
Experiment [2] has as its target T1, Protein deacetylase HDAC6 (Homo sapiens, UniProt Q9UBN7).
T1 sequence (Q9UBN7 whole entry): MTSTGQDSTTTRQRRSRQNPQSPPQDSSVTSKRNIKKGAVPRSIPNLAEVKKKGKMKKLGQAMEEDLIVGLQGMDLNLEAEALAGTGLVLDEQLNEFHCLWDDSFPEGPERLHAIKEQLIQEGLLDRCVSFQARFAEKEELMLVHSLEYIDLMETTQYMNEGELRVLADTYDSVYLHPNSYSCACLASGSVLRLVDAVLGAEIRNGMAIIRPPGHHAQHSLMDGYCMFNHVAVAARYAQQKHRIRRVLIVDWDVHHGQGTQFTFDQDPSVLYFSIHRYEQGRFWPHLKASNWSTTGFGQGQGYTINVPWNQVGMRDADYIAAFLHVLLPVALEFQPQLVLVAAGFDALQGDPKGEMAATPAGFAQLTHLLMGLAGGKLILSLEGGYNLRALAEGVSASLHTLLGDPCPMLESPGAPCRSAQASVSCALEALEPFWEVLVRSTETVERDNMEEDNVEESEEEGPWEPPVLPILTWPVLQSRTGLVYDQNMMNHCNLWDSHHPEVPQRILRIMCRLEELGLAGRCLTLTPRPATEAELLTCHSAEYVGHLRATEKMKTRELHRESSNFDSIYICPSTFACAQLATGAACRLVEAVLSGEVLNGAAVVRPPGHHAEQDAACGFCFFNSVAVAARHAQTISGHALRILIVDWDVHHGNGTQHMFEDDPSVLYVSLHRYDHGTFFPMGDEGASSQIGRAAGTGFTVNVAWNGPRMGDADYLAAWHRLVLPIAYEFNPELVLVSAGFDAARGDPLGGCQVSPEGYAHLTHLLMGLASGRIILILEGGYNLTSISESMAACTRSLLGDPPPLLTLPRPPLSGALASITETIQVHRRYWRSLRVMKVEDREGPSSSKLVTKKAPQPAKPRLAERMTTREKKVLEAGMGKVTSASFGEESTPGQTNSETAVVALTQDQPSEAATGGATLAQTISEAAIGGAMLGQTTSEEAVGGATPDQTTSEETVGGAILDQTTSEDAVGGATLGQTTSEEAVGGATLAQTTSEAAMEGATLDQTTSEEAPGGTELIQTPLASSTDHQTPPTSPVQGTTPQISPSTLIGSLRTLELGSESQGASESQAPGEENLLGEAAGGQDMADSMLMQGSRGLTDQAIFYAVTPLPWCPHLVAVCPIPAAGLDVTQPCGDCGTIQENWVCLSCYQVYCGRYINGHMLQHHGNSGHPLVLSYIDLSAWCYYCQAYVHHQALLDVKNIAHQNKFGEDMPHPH
Briefly: Inhibition of human recombinant HDAC6 by fluorometric assay using Fluor de Lys substrate.

The next experiment addresses Histone deacetylase 2 (Homo sapiens, UniProt Q92769). In words: Inhibition of human recombinant HDAC2 by fluorometric assay using Fluor de Lys substrate.
For another experiment, the system named is A549. In words: Antiproliferative activity against human A549 cells after 48 hrs by MTT assay. The format is functional, cell-based. As to conditions: A549, 48 h.
The subject of the next experiment is HCT-116. In words: Antiproliferative activity against human HCT116 cells after 48 hrs by MTT assay. The class given is functional, cell-based. As to conditions: HCT-116, 48 h.
For another experiment, the target named is T2, Histone deacetylase 8 (Homo sapiens, UniProt Q9BY41).
T2 sequence (Q9BY41 whole entry): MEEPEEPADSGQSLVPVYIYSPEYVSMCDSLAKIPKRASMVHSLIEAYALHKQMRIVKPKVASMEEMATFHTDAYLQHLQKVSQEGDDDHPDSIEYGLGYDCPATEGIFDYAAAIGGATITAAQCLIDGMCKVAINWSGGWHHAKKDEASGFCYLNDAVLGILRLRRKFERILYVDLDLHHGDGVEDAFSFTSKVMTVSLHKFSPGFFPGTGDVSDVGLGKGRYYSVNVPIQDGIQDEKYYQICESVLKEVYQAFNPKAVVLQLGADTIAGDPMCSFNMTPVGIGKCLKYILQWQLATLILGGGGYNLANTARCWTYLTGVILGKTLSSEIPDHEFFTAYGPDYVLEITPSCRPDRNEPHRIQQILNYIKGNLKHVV
In words: Inhibition of human recombinant HDAC8 by fluorometric assay using Fluor de Lys substrate.

Another experiment concerns HepG2. In words: Antiproliferative activity against human HepG2 cells after 48 hrs by MTT assay. The class given is functional, cell-based. As to conditions: HepG2, 48 h.
In a further experiment the target is Histone deacetylase 1 (Homo sapiens, UniProt Q13547). Briefly: Inhibition of human recombinant HDAC1 by fluorometric assay using Fluor de Lys substrate.
Chain of Histone deacetylase 1 (Q13547 whole entry): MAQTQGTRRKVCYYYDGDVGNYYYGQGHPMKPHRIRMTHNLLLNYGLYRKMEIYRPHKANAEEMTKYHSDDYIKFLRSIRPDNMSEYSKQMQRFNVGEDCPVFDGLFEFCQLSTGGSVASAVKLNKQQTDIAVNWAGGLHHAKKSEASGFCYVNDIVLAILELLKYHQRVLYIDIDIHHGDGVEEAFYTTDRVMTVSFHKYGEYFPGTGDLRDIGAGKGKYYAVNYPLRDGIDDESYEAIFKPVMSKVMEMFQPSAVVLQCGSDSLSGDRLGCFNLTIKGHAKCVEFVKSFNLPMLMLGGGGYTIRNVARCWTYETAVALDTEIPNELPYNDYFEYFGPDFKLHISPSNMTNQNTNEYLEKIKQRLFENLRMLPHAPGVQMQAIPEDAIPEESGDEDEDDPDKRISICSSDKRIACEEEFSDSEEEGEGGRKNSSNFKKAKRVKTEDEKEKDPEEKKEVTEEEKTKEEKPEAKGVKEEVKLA

Chain of Vascular endothelial growth factor receptor 2 (P35968 whole entry): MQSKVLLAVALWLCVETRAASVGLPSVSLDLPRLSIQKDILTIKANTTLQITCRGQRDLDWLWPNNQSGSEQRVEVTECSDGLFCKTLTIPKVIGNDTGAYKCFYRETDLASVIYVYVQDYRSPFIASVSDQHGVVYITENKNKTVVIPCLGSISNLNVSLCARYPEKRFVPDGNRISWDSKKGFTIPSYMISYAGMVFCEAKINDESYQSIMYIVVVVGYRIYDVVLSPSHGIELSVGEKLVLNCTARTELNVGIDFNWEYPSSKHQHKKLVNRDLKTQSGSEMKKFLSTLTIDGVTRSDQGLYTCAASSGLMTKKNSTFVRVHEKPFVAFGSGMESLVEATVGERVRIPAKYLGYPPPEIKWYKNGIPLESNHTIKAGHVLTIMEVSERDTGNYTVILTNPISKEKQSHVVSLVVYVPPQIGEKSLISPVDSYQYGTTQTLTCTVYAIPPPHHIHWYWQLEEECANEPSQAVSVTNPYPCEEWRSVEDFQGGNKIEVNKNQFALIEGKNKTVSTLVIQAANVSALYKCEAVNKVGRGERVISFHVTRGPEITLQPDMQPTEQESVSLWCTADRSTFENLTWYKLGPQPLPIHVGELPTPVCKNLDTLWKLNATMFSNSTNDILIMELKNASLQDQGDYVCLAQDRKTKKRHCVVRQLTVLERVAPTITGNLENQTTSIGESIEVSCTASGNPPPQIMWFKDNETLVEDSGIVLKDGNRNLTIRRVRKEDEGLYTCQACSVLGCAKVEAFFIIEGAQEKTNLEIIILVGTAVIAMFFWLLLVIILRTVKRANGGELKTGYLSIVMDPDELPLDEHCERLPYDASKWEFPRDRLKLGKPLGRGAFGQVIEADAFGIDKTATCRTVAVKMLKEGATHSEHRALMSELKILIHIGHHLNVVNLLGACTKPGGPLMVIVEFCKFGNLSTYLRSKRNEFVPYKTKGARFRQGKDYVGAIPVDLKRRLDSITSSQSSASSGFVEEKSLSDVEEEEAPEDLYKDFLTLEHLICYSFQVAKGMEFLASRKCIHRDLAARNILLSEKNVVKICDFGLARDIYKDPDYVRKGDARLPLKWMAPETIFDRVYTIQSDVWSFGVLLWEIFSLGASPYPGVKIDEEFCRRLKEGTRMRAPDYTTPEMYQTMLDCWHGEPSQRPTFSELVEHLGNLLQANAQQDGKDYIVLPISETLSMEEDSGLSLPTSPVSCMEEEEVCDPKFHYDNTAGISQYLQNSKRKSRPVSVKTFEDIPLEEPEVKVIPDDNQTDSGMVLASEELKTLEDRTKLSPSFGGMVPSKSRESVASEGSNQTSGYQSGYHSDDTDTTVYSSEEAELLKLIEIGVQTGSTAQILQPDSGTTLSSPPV
Chain of Histone deacetylase 2 (Q92769 whole entry): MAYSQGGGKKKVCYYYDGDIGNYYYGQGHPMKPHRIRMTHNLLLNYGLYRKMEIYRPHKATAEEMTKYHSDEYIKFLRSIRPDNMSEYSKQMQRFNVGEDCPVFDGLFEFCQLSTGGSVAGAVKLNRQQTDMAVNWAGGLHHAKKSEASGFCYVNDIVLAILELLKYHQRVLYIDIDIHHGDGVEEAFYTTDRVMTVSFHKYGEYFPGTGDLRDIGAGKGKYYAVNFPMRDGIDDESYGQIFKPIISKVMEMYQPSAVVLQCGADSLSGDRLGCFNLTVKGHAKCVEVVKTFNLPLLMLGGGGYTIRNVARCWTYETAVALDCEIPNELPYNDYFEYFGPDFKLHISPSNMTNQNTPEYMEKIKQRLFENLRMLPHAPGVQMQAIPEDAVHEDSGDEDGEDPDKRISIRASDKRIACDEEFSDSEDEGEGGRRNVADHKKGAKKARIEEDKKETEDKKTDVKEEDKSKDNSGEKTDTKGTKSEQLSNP

Turning to `COc1cc2ncnc(Nc3cccc(Cl)c3)c2cc1OCCC(=O)NO`, the IC50 in the experiment with MCF7 was over 100000 nM; in [1] it was 476 nM; at Histone deacetylase, 645 nM.

As to `COc1cc2ncnc(Nc3cccc(Cl)c3)c2cc1OCCCC(=O)NO`, the IC50 in the experiment with MCF7 is 65200 nM; in experiment [1], 352 nM; against Histone deacetylase it was 121 nM.

`COc1cc2ncnc(Nc3cccc(Cl)c3)c2cc1OCCCCC(=O)NO`: the IC50 with MCF7 came to 8600 nM; in experiment [1], 613 nM; against Histone deacetylase, 17 nM.

Turning to `COc1cc2ncnc(Nc3cccc(Cl)c3)c2cc1OCCCCCC(=O)NO`, the IC50 with MCF7 worked out at 3200 nM; in [1], 501 nM; at Histone deacetylase, 5.4 nM.

Regarding `COc1cc2ncnc(Nc3cccc(Br)c3)c2cc1OCCC(=O)NO`, the IC50 with MCF7 is over 100000 nM; in [1], 625 nM; against Histone deacetylase, 531 nM.

`COc1cc2ncnc(Nc3cccc(Br)c3)c2cc1OCCCC(=O)NO`: the IC50 worked out at 68400 nM in the experiment with MCF7, 434 nM in [1] and 97 nM at Histone deacetylase.

On to `COc1cc2ncnc(Nc3cccc(Br)c3)c2cc1OCCCCC(=O)NO`, for which the IC50 in the experiment on MCF7 was determined as 8500 nM; in experiment [1] it was 415 nM; on Histone deacetylase it was 15 nM.

Consider `COc1cc2ncnc(Nc3cccc(Br)c3)c2cc1OCCCCCC(=O)NO`, for which the IC50 in the experiment on MCF7 was 2800 nM; in experiment [1] it was 462 nM; on Histone deacetylase, 4.5 nM.

As for `COc1cc2ncnc(Nc3ccc(Cl)cc3Cl)c2cc1OCCC(=O)NO`, the IC50 in the experiment with MCF7 came to 95000 nM; in experiment [1] it was 370 nM; against Histone deacetylase, 215 nM.

For the compound `COc1cc2ncnc(Nc3ccc(Cl)cc3Cl)c2cc1OCCCC(=O)NO`, the IC50 with MCF7 came out at 56800 nM; in [1] it was 138 nM; on Histone deacetylase, 86 nM.

As for `COc1cc2ncnc(Nc3ccc(Cl)cc3Cl)c2cc1OCCCCC(=O)NO`, the IC50 came out at 6400 nM with MCF7, 115 nM in experiment [1] and 14 nM against Histone deacetylase.

Consider `COc1cc2ncnc(Nc3ccc(Cl)cc3Cl)c2cc1OCCCCCC(=O)NO`, for which the IC50 in the experiment on MCF7 is 1200 nM; in experiment [2], 25.5 nM; on Histone deacetylase 2 it was 6.8 nM; in the experiment with A549, 5400 nM; in the experiment with HCT-116, 1800 nM; on Histone deacetylase 8, 5.2 nM. The IC50 in experiment [1] amounted to 84 nM; with HepG2, 2700 nM; at Histone deacetylase 1 it was 3.5 nM; against Histone deacetylase, 2.8 nM.

For `COc1cc2ncnc(Nc3cc(Cl)ccc3Cl)c2cc1OCCC(=O)NO`, the IC50 in the experiment on MCF7 is over 100000 nM; in experiment [1], 1260 nM; against Histone deacetylase, 348 nM.

Regarding `COc1cc2ncnc(Nc3cc(Cl)ccc3Cl)c2cc1OCCCC(=O)NO`, the IC50 in the experiment with MCF7 was found to be 44500 nM; in experiment [1], 2140 nM; at Histone deacetylase, 57 nM.

Regarding `COc1cc2ncnc(Nc3cc(Cl)ccc3Cl)c2cc1OCCCCC(=O)NO`, the IC50 in the experiment with MCF7 was 13700 nM; in experiment [1], 5200 nM; at Histone deacetylase it was 21 nM.

In the case of `COc1cc2ncnc(Nc3cc(Cl)ccc3Cl)c2cc1OCCCCCC(=O)NO`, the IC50 in the experiment on MCF7 was 4000 nM; in experiment [1], 2450 nM; against Histone deacetylase, 8.4 nM.

Take `COc1cc2/c(=N/c3ccc(Br)cc3F)nc[nH]c2cc1OCC1CCN(C)CC1` [VANDETANIB]: the IC50 was 18500 nM in the experiment with MCF7 and over 10000 nM against Histone deacetylase.

`O=C(CCCCCCC(=O)Nc1ccccc1)NO` [VORINOSTAT] came in with an IC50 in experiment [1] of over 10000 nM.

The values are drawn from ChEMBL document CHEMBL3632579, “Hybrids from 4-anilinoquinazoline and hydroxamic acid as dual inhibitors of vascular endothelial growth factor receptor-2 and histone deacetylase” (Bioorg Med Chem Lett, 2015).
